Test results as given in patent US8519096B2, “Citrullinated peptides for diagnosing and prognosing rheumatoid arthritis” (Nestec S.A., priority 2009, dated 2013).
Non-standard residues stand in square brackets, D forms with d. *: point of attachment. Biotin = O=C1N[C@H]2[C@H](CS[C@H]2CCCCC(=O)*)N1; Cit = NC(=O)NCCC[C@H](N)C(=O)O

Tested on: IgG ACPAs
Assay: ACPA ELISA with anti-human IgG secondary antibody
Assay type: binding
Conditions: Example 7, FIGS. 20-27
Protocol: The synthetic citrullnated peptides set forth in Example 6, which were designed from synovial proteins, were synthesized and evaluated for their ability to diagnose and/or prognose RA. […] The peptides were then tested for IgG ACPA dose-response in samples of synovial fluid taken from both healthy patients and patients with RA.

| Substance | IgG ACPA positive response (strong/moderate) |
| --- | --- |
| FBNT-6: synthetic citrullinated peptide derived from fibronectin, Table 8 (Biotin-RIAP[Cit]ATITGPRATITGY[Cit]YRI[Cit]HHPEHG-NH2; SMILES CC[C@H](C)[C@H](NC(=O)[C@H](CCCNC(=N)N)NC(=O)CCCC[C@@H]1SC[C@@H]2NC(=O)N[C@@H]21)C(=O)N[C@@H](C)C(=O)N1CCC[C@H]1C(=O)N[C@@H](CCCNC(N)=O)C(=O)N[C@@H](C)C(=O)N[C@H](C(=O)N[C@H](C(=O)N[C@H](C(=O)NCC(=O)N1CCC[C@H]1C(=O)N[C@@H](CCCNC(=N)N)C(=O)N[C@@H](C)C(=O)N[C@H](C(=O)N[C@H](C(=O)N[C@H](C(=O)NCC(=O)N[C@@H](Cc1ccc(O)cc1)C(=O)N[C@@H](CCCNC(N)=O)C(=O)N[C@@H](Cc1ccc(O)cc1)C(=O)N[C@@H](CCCNC(=N)N)C(=O)N[C@H](C(=O)N[C@@H](CCCNC(N)=O)C(=O)N[C@@H](Cc1c[nH]cn1)C(=O)N[C@@H](Cc1c[nH]cn1)C(=O)N1CCC[C@H]1C(=O)N[C@@H](CCC(=O)O)C(=O)N[C@@H](Cc1c[nH]cn1)C(=O)NCC(N)=O)[C@@H](C)CC)[C@@H](C)O)[C@@H](C)CC)[C@@H](C)O)[C@@H](C)O)[C@@H](C)CC)[C@@H](C)O) | strong |
| FBNT-7: synthetic citrullinated peptide derived from fibronectin, Table 8 (Biotin-GP[Cit]EDRVPHSPRED[Cit]VPHS[Cit]NSITLTNG-NH2; SMILES CC[C@H](C)[C@H](NC(=O)[C@H](CO)NC(=O)[C@H](CC(N)=O)NC(=O)[C@H](CCCNC(N)=O)NC(=O)[C@H](CO)NC(=O)[C@H](Cc1c[nH]cn1)NC(=O)[C@@H]1CCCN1C(=O)[C@@H](NC(=O)[C@H](CCCNC(N)=O)NC(=O)[C@H](CC(=O)O)NC(=O)[C@H](CCC(=O)O)NC(=O)[C@H](CCCNC(=N)N)NC(=O)[C@@H]1CCCN1C(=O)[C@H](CO)NC(=O)[C@H](Cc1c[nH]cn1)NC(=O)[C@@H]1CCCN1C(=O)[C@@H](NC(=O)[C@H](CCCNC(=N)N)NC(=O)[C@H](CC(=O)O)NC(=O)[C@H](CCC(=O)O)NC(=O)[C@H](CCCNC(N)=O)NC(=O)[C@@H]1CCCN1C(=O)CNC(=O)CCCC[C@@H]1SC[C@@H]2NC(=O)N[C@@H]21)C(C)C)C(C)C)C(=O)N[C@H](C(=O)N[C@@H](CC(C)C)C(=O)N[C@H](C(=O)N[C@@H](CC(N)=O)C(=O)NCC(N)=O)[C@@H](C)O)[C@@H](C)O) | moderate |
| FBNT-10: synthetic citrullinated peptide derived from fibronectin, Table 8 (Biotin-GGFR[Cit]TTPPTTF[Cit]RTTPPTTAR-NH2; SMILES C[C@H](NC(=O)[C@@H](NC(=O)[C@@H](NC(=O)[C@@H]1CCCN1C(=O)[C@@H]1CCCN1C(=O)[C@@H](NC(=O)[C@@H](NC(=O)[C@H](CCCNC(=N)N)NC(=O)[C@H](CCCNC(N)=O)NC(=O)[C@H](Cc1ccccc1)NC(=O)[C@@H](NC(=O)[C@@H](NC(=O)[C@@H]1CCCN1C(=O)[C@@H]1CCCN1C(=O)[C@@H](NC(=O)[C@@H](NC(=O)[C@H](CCCNC(N)=O)NC(=O)[C@H](CCCNC(=N)N)NC(=O)[C@H](Cc1ccccc1)NC(=O)CNC(=O)CNC(=O)CCCC[C@@H]1SC[C@@H]2NC(=O)N[C@@H]21)[C@@H](C)O)[C@@H](C)O)[C@@H](C)O)[C@@H](C)O)[C@@H](C)O)[C@@H](C)O)[C@@H](C)O)[C@@H](C)O)C(=O)N[C@@H](CCCNC(=N)N)C(N)=O) | moderate |
| FIB-A6: 25-mer citrullinated peptide: fibrinogen alpha chain amino acids 451-465 linked to 509-517, Cys461 to Ser (Biotin-GSGSTTTTR[Cit]SSSKTVFRH[Cit]HPDEA-NH2; SMILES CC(C)[C@H](NC(=O)[C@@H](NC(=O)[C@H](CCCCN)NC(=O)[C@H](CO)NC(=O)[C@H](CO)NC(=O)[C@H](CO)NC(=O)[C@H](CCCNC(N)=O)NC(=O)[C@H](CCCNC(=N)N)NC(=O)[C@@H](NC(=O)[C@@H](NC(=O)[C@@H](NC(=O)[C@@H](NC(=O)[C@H](CO)NC(=O)CNC(=O)[C@H](CO)NC(=O)CNC(=O)CCCC[C@@H]1SC[C@@H]2NC(=O)N[C@@H]21)[C@@H](C)O)[C@@H](C)O)[C@@H](C)O)[C@@H](C)O)[C@@H](C)O)C(=O)N[C@@H](Cc1ccccc1)C(=O)N[C@@H](CCCNC(=N)N)C(=O)N[C@@H](Cc1c[nH]cn1)C(=O)N[C@@H](CCCNC(N)=O)C(=O)N[C@@H](Cc1c[nH]cn1)C(=O)N1CCC[C@H]1C(=O)N[C@@H](CC(=O)O)C(=O)N[C@@H](CCC(=O)O)C(=O)N[C@@H](C)C(N)=O) | moderate |
| FIB-G1: synthetic citrullinated peptide derived from fibrin (gamma-chain), Table 8 (Biotin-GYVAT[Cit]DNSSILDE[Cit]FGSRILTHDSSI[Cit]YR-NH2; SMILES CC[C@H](C)[C@H](NC(=O)[C@H](CO)NC(=O)[C@H](CO)NC(=O)[C@H](CC(=O)O)NC(=O)[C@H](Cc1c[nH]cn1)NC(=O)[C@@H](NC(=O)[C@H](CC(C)C)NC(=O)[C@@H](NC(=O)[C@H](CCCNC(=N)N)NC(=O)[C@H](CO)NC(=O)CNC(=O)[C@H](Cc1ccccc1)NC(=O)[C@H](CCCNC(N)=O)NC(=O)[C@H](CCC(=O)O)NC(=O)[C@H](CC(=O)O)NC(=O)[C@H](CC(C)C)NC(=O)[C@@H](NC(=O)[C@H](CO)NC(=O)[C@H](CO)NC(=O)[C@H](CC(N)=O)NC(=O)[C@H](CC(=O)O)NC(=O)[C@H](CCCNC(N)=O)NC(=O)[C@@H](NC(=O)[C@H](C)NC(=O)[C@@H](NC(=O)[C@H](Cc1ccc(O)cc1)NC(=O)CNC(=O)CCCC[C@@H]1SC[C@@H]2NC(=O)N[C@@H]21)C(C)C)[C@@H](C)O)[C@@H](C)CC)[C@@H](C)CC)[C@@H](C)O)C(=O)N[C@@H](CCCNC(N)=O)C(=O)N[C@@H](Cc1ccc(O)cc1)C(=O)N[C@@H](CCCNC(=N)N)C(N)=O) | strong |
| H2A-1: synthetic citrullinated peptide derived from histone (H2A), Table 8 (Biotin-GLELAGNAA[Cit]DNKKTRIIP[Cit]HLQG-NH2; SMILES CC[C@H](C)[C@H](NC(=O)[C@H](CCCNC(=N)N)NC(=O)[C@@H](NC(=O)[C@H](CCCCN)NC(=O)[C@H](CCCCN)NC(=O)[C@H](CC(N)=O)NC(=O)[C@H](CC(=O)O)NC(=O)[C@H](CCCNC(N)=O)NC(=O)[C@H](C)NC(=O)[C@H](C)NC(=O)[C@H](CC(N)=O)NC(=O)CNC(=O)[C@H](C)NC(=O)[C@H](CC(C)C)NC(=O)[C@H](CCC(=O)O)NC(=O)[C@H](CC(C)C)NC(=O)CNC(=O)CCCC[C@@H]1SC[C@@H]2NC(=O)N[C@@H]21)[C@@H](C)O)C(=O)N[C@H](C(=O)N1CCC[C@H]1C(=O)N[C@@H](CCCNC(N)=O)C(=O)N[C@@H](Cc1c[nH]cn1)C(=O)N[C@@H](CC(C)C)C(=O)N[C@@H](CCC(N)=O)C(=O)NCC(N)=O)[C@@H](C)CC) | moderate |
| H2B-2: synthetic citrullinated peptide derived from histone (H2B), Table 8 (Biotin-SFVNDIFE[Cit]IAGEAS[Cit]LAHYNKRSTITS[Cit]EG-NH2; SMILES CC[C@H](C)[C@H](NC(=O)[C@H](CCCNC(N)=O)NC(=O)[C@H](CCC(=O)O)NC(=O)[C@H](Cc1ccccc1)NC(=O)[C@@H](NC(=O)[C@H](CC(=O)O)NC(=O)[C@H](CC(N)=O)NC(=O)[C@@H](NC(=O)[C@H](Cc1ccccc1)NC(=O)[C@H](CO)NC(=O)CCCC[C@@H]1SC[C@@H]2NC(=O)N[C@@H]21)C(C)C)[C@@H](C)CC)C(=O)N[C@@H](C)C(=O)NCC(=O)N[C@@H](CCC(=O)O)C(=O)N[C@@H](C)C(=O)N[C@@H](CO)C(=O)N[C@@H](CCCNC(N)=O)C(=O)N[C@@H](CC(C)C)C(=O)N[C@@H](C)C(=O)N[C@@H](Cc1c[nH]cn1)C(=O)N[C@@H](Cc1ccc(O)cc1)C(=O)N[C@@H](CC(N)=O)C(=O)N[C@@H](CCCCN)C(=O)N[C@@H](CCCNC(=N)N)C(=O)N[C@@H](CO)C(=O)N[C@H](C(=O)N[C@H](C(=O)N[C@H](C(=O)N[C@@H](CO)C(=O)N[C@@H](CCCNC(N)=O)C(=O)N[C@@H](CCC(=O)O)C(=O)NCC(N)=O)[C@@H](C)O)[C@@H](C)CC)[C@@H](C)O) | moderate |
| H2B-3: synthetic citrullinated peptide derived from histone (H2B), Table 8 (Biotin-SRLAHYNK[Cit]STITSREIQTAV[Cit]LG-NH2; SMILES CC[C@H](C)[C@H](NC(=O)[C@H](CCC(=O)O)NC(=O)[C@H](CCCNC(=N)N)NC(=O)[C@H](CO)NC(=O)[C@@H](NC(=O)[C@@H](NC(=O)[C@@H](NC(=O)[C@H](CO)NC(=O)[C@H](CCCNC(N)=O)NC(=O)[C@H](CCCCN)NC(=O)[C@H](CC(N)=O)NC(=O)[C@H](Cc1ccc(O)cc1)NC(=O)[C@H](Cc1c[nH]cn1)NC(=O)[C@H](C)NC(=O)[C@H](CC(C)C)NC(=O)[C@H](CCCNC(=N)N)NC(=O)[C@H](CO)NC(=O)CCCC[C@@H]1SC[C@@H]2NC(=O)N[C@@H]21)[C@@H](C)O)[C@@H](C)CC)[C@@H](C)O)C(=O)N[C@@H](CCC(N)=O)C(=O)N[C@H](C(=O)N[C@@H](C)C(=O)N[C@H](C(=O)N[C@@H](CCCNC(N)=O)C(=O)N[C@@H](CC(C)C)C(=O)NCC(N)=O)C(C)C)[C@@H](C)O) | strong |
| H3-2: synthetic citrullinated peptide derived from histone (H3), Table 8 (Biotin-DFKTDL[Cit]FQSSAVMARRIRGE[Cit]AG-NH2; SMILES CC[C@H](C)[C@H](NC(=O)[C@H](CCCNC(=N)N)NC(=O)[C@H](CCCNC(=N)N)NC(=O)[C@H](C)NC(=O)[C@H](CCSC)NC(=O)[C@@H](NC(=O)[C@H](C)NC(=O)[C@H](CO)NC(=O)[C@H](CO)NC(=O)[C@H](CCC(N)=O)NC(=O)[C@H](Cc1ccccc1)NC(=O)[C@H](CCCNC(N)=O)NC(=O)[C@H](CC(C)C)NC(=O)[C@H](CC(=O)O)NC(=O)[C@@H](NC(=O)[C@H](CCCCN)NC(=O)[C@H](Cc1ccccc1)NC(=O)[C@H](CC(=O)O)NC(=O)CCCC[C@@H]1SC[C@@H]2NC(=O)N[C@@H]21)[C@@H](C)O)C(C)C)C(=O)N[C@@H](CCCNC(=N)N)C(=O)NCC(=O)N[C@@H](CCC(=O)O)C(=O)N[C@@H](CCCNC(N)=O)C(=O)N[C@@H](C)C(=O)NCC(N)=O) | moderate |
